# Experimental data: EP0603240B1, “SAFENING HERBICIDAL PYRAZOLYLSULFONYLUREAS” (priority 1991, dated 1993)
# How the values were obtained:
# Assay type in all cases: in vivo
# corn = experiment: Example 23, Procedure II: Antidote Nos. 15 and 17-21 against Herbicide No. 1, 13 days after application; conditions: for % Inhibition Corn: 13 days after application
# Protocol: (§1) Containers were filled and compacted with a fumigated silt loam top soil to a depth of about 1.3 cm from the top of the container. A first container was designated as an untreated control, a second container was designated as a herbicide control, and a third container was designated as a herbicide + antidote test container. Each of the containers was seeded with a crop species. A measured amount of herbicide dispersed or dissolved in acetone was applied to a measured quantity of soil. To this same quantity of soil treated with herbicide, there was added a measured amount of antidote dispersed or dissolved in acetone. The quantity of soil treated with the herbicide and antidote was thoroughly mixed to incorporate the herbicide and antidote in the soil uniformly. The seed bed in the third container of soil was covered with the soil treated with the herbicide and antidote and the container was leveled. For each test series, the seed beds of the first and second containers were likewise covered by soil layers. the cover layer of the first container was not treated with herbicide or antidote.
# (§2) The containers were then placed on a bench in a greenhouse and sub-irrigated as required for the duration of the test. […] Plant response is measured in terms of percent injury. Antidote efficacy is indicated as the difference in plant injury by the herbicide(s) without the antidote and with the antidote.
# (§3) This procedure is the same as Procedure I, but modified in the manner that after incorporation of the chemicals (herbicide and antidote) the containers with the covered seedbed were treated with an initial overhead irrigation equivalent to 0.6 cm rainfall, then subsequently sub-irrigated as required on greenhouse benches.
# (§4) In other greenhouse tests, using Procedure II described above, the safening efficacy of Antidote Nos. 15 and 17-21 was evaluated against Herbicide No. 1 in corn in the presence of Giant foxtail (Setaria fabergi) and Velvetleaf (Abutilon theophrasti) as representative annual monocotyledonous and dicotyledonous weeds, respectively.
# (§5) Test results are shown in Tables 23A and 23B wherein the indicated plant inhibition represents the average of duplicate replications, with observations being made thirteen (13) days after application of the chemicals. Giant foxtail and Velvetleaf are represented by the symbols "GFT" and "VL", respectively. The data in Table 23A show the test results using the antidotes at 2.24 kg/ha, whereas in Table 23B, the antidotal rate was reduced to 0.56 kg/ha.
# [1] = tested on: velvetleaf (Abutilon theophrasti); experiment: Example 18, Procedure II: Herbicide No. 1 + ERADICANE (EPTC + R-25788) with auxiliary antidotes
# Protocol: as §1, §2, §3
# (§6) In the series of greenhouse tests described below, for routine screening purposes the herbicide/antidote compositions were tested in crop/weed combinations involving corn as the crop and either or both of the weeds barnyardgrass (Echinochloa crusgalli), a monocotyledonous weed, and velvetleaf (Abutilon theophrasti), a dicotyledonous weed. In the tables below, these weeds are indicated by the symbols "BYG" and "VL", respectively.
# (§7) In the test reported in this example, the herbicidal composition was similar to that used in Example 16 in that Herbicide No. 1 was combined with EPTC (Herbicide No. 4) as a co-herbicide and the antidotes included Nos. 1, 2, 7, 13 and 15. However, in this test the EPTC was introduced as a formulation of ERADICANE (EPTC + the antidote R-25788, i.e., Antidote No. 1) at an application rate of 8.96 kg/ha. Thus, in this test two antidotes were present, viz. R-25788 and one of the auxilliary antidotes, No. 2, 13 and 15.
# (§8) Test procedures were those of Procedure II above.
# [2] = tested on: barnyardgrass (Echinochloa crusgalli); experiment: as above
# Protocol: as §1, §2, §3, §6, §7, §8
# [3] = tested on: Giant foxtail (Setaria fabergi); experiment: Example 23, Procedure II: Antidote Nos. 15 and 17-21 against Herbicide No. 1, 13 days after application
# Protocol: as §1, §2, §3, §4, §5
# [4] = tested on: velvetleaf (Abutilon theophrasti); experiment: as above
# Protocol: as §1, §2, §3, §4, §5
# [5] = Herbicide No.1 0.56 kg/ha + ERADICANE 8.96 kg/ha, no added antidote
# [6] = Herbicide No.1 0.56 kg/ha alone
# [7] = Herbicide No.1 1.12 kg/ha + ERADICANE 8.96 kg/ha, no added antidote
# [8] = Herbicide No.1 1.12 kg/ha alone
# [9] = Table 23A, Herb. No. 1 0.14 Kg/Ha + antidote 2.24 Kg/ha
# [10] = Table 23A, Herb. No. 1 0.28 Kg/Ha + antidote 2.24 Kg/ha
# [11] = Table 23A, Herb. No. 1 0.56 Kg/Ha + antidote 2.24 Kg/ha
# [12] = Table 23A, Herb. No. 1 1.12 Kg/Ha + antidote 2.24 Kg/ha
# [13] = Table 23B, Herb. No. 1 0.14 Kg/Ha + antidote 0.56 Kg/ha
# [14] = Table 23B, Herb. No. 1 0.28 Kg/Ha + antidote 0.56 Kg/ha
# [15] = Table 23B, Herb. No. 1 0.56 Kg/Ha + antidote 0.56 Kg/ha
# [16] = Table 23B, Herb. No. 1 1.12 Kg/Ha + antidote 0.56 Kg/ha
Compound,"% Inhibition GFT [3, 9] [%]","% Inhibition GFT [3, 10] [%]","% Inhibition GFT [3, 11] [%]","% Inhibition GFT [3, 12] [%]","% Inhibition GFT [3, 13] [%]","% Inhibition GFT [3, 14] [%]","% Inhibition GFT [3, 15] [%]","% Inhibition GFT [3, 16] [%]",% Inhibition Corn (corn; [9]) [%],% Inhibition Corn (corn; [10]) [%],% Inhibition Corn (corn; [11]) [%],% Inhibition Corn (corn; [12]) [%],% Inhibition Corn (corn; [13]) [%],% Inhibition Corn (corn; [14]) [%],% Inhibition Corn (corn; [15]) [%],% Inhibition Corn (corn; [16]) [%],"% Inhibition VL [4, 9] [%]","% Inhibition VL [4, 10] [%]","% Inhibition VL [4, 11] [%]","% Inhibition VL [4, 12] [%]",also measured
"CC1(C)OC(c2ccco2)CN1C(=O)C(Cl)Cl (stereo not drawn) [Antidote No. 15, Oxazolidine, 3-(dichloroacetyl)-5-(2-furanyl)-2,2-dimethyl]",–,–,–,–,–,–,–,–,–,–,–,–,–,–,–,–,–,–,–,–,"safening of corn, assessment in words (corn; Herbicide No. 1, Tables 23A and 23B): greatly safened corn against the herbicide at all test rates"
COC(=O)c1c(Cl)nn(C)c1S(=O)(=O)NC(=O)Nc1nc(OC)cc(OC)n1 [No.1],–,–,–,–,–,–,–,–,–,–,–,–,–,–,–,–,–,–,–,–,"% Injury VL [1, 5]: 80%; % Injury VL [1, 6]: 45%; % Injury VL [1, 7]: 75%; % Injury VL [1, 8]: 55%; % Injury BYG [2, 5]: 90%; % Injury BYG [2, 6]: 30%; % Injury BYG [2, 7]: 85%; % Injury BYG [2, 8]: 55%"
CC1COc2ccccc2N1C(=O)C(Cl)Cl (stereo not drawn) [compound 17],25,25,60,70,15,40,55,65,0,0,15,25,0,10,20,30,95,85,95,95,"% Inhibition VL [4, 13]: 90%; % Inhibition VL [4, 14]: 90%; % Inhibition VL [4, 15]: 90%; % Inhibition VL [4, 16]: 95%"
O=C(O)COC(c1ccccc1)c1ccccc1 [compound 18],15,30,65,70,15,20,60,60,0,0,10,10,5,5,20,30,90,95,95,95,"% Inhibition VL [4, 13]: 90%; % Inhibition VL [4, 14]: 95%; % Inhibition VL [4, 15]: 90%; % Inhibition VL [4, 16]: 95%"
O=C(O)COC(c1ccccc1)c1ccccc1 [compound 19],15,30,50,70,25,40,60,65,0,0,5,15,0,5,15,40,90,85,95,95,"% Inhibition VL [4, 13]: 85%; % Inhibition VL [4, 14]: 85%; % Inhibition VL [4, 15]: 90%; % Inhibition VL [4, 16]: 90%"
COC(=O)COC(c1ccccc1)c1ccccc1 [compound 20],15,35,40,65,15,20,60,75,0,0,0,15,0,5,20,40,90,90,85,90,"% Inhibition VL [4, 13]: 90%; % Inhibition VL [4, 14]: 90%; % Inhibition VL [4, 15]: 90%; % Inhibition VL [4, 16]: 95%"
CCSC(=O)COC(c1ccccc1)c1ccccc1 [compound 21],10,20,35,70,20,45,50,75,0,0,5,30,0,5,20,35,85,85,95,95,"% Inhibition VL [4, 13]: 85%; % Inhibition VL [4, 14]: 90%; % Inhibition VL [4, 15]: 90%; % Inhibition VL [4, 16]: 95%"
